In US20170270277A1, “METHOD FOR SUPERVISING CONSUMPTION OF A MEDICAL FOOD FOR PREVENTION AND/OR MANAGEMENT OF A DISEASE OR CONDITION” (Photonz Corporation Ltd., priority 2012, published 2017):

Assay: Laboratory test of the patient's serum lipids after consumption of the medical food, change from baseline (Example 4)
Type: in vivo
Conditions: 'one or more of'
From the text: “Blood data” as used herein includes levels of cholesterol, diglycerides and triglycerides amongst other parameters described herein. Blood data parameters can be measured in accordance with any clinically acceptable methodology. For example, triglycerides, total cholesterol, HDL-C and fasting blood sugar can be sampled from serum and analyzed using standard photometry techniques. VLDL-TG, LDL-C and VLDL-C can be calculated or determined using serum lipoprotein fractionation by preparative ultracentrifugation and subsequent quantitative analysis by refractometry or by analytic ultracentrifugal methodology. Apo AI, Apo B and hsCRP can be determined from serum using standard nephelometry techniques. Lipoprotein (a) can be determined from serum using standard turbidimetric immunoassay techniques. LDL particle number and particle size can be determined using nuclear magnetic resonance (NMR) spectrometry. Remnants lipoproteins and LDL-phospholipase A2 can be determined from EDTA plasma or serum and serum, respectively, using enzymatic immunoseparation techniques. Oxidized LDL, intercellular adhesion molecule-1 and interleukin-6 levels can be determined from serum using standard enzyme immunoassay techniques. These techniques are described in detail in standard textbooks, for example Tietz Fundamentals of Clinical Chemistry, 6th Ed. (Burtis, Ashwood and Borter Eds.), WB Saunders Company. In one embodiment, subjects fast for up to 12 hours prior to blood sample collection, for example about 10 hours.
This is a further example of one particular embodiment of practicing the invention. The results presented in this example are expected to be generated.
A patient is concerned about maintaining good cardiovascular health and advises a medical professional of this desire. The patient may be risk of developing or be diagnosed of having mixed dyslipidemia, hyperlipidemia and hypertriglyceridemia.
The medical professional sets up a laboratory in accordance with clinically acceptable methodologies to determine the patient's serum lipids including triglycerides, total cholesterol, HDL cholesterol, LDL cholesterol and fasting blood sugar. The patient may have one or more of: a baseline triglyceride level of about 300 mg/dl to about 1500 mg/dl; baseline non-HDL-C value of about 200 mg/dl to about 400 mg/dl; baseline total cholesterol value of about 250 mg/dl to about 400 mg/dl; baseline vLDL-C value of about 140 mg/dl to about 200 mg/dl; baseline HDL-C value of about 10 to about 60 mg/dl; and/or baseline LDL-C value of about 50 to about 300 mg/dl.
Additional patient registration data including age, sex, weight, relative level of fitness and health, history of illness, family history of illness, and current prescribed pharmaceutical medications and medical foods and dosages, are also accumulated as a data set on a back end computer. The medical professional queries the backend computer about the patient's laboratory data and lifestyle metrics and this back end computer calculates the dose of the EPA-ethyl ester to be provided to the patient as a medical food for a certain period of time based on the analyzed metrics in order for that patient's serum lipids to be returned to normal levels with a low risk of cardiovascular disease. […]
After consumption of the medical food for the specified period of time, the patient receives another laboratory test of their serum lipids and the data is analyzed for changes from the original baseline on the back end computer. […]

[1] = same patient and medical food dosing

Compound: CC/C=C\C/C=C\C/C=C\C/C=C\C/C=C\CCCC(=O)OCC [EPA-ethyl ester, eicosapentaenoyl-ethyl ester]
- triglyceride levels compared to baseline (patient at risk of or with mixed dyslipidemia, hyperlipidemia, hypertriglyceridemia, 1 to 4 g of at least 60% pure EPA-ethyl ester 1 to 4 times per day): reduced
- Apo B levels compared to baseline [1]: reduced
- HDL-C levels compared to baseline [1]: increased
- non-HDL-C levels compared to baseline [1]: a reduction
- vLDL levels compared to baseline [1]: a reduction
